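96-well plates; 48 h exposure; 5 concentrations. Endpoints by linear interpolation between flanking doses. Not reached: highest tested concentration assigned. Abbreviation: GI50, concentration required for 50% inhibition of growth.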 Activity calls are given as the source filed them. Rule as the data show it: active = GI50 up to about 1.1 µM and inactive = higher.

Some test systems named below: M14; KM12; LOX IMVI; IGROV-1; CAKI-1; HCC 2998; SK-MEL-5; UO-31; NCI-H226; SNB-19; OVCAR-4; NCI-H23; SF-295; MOLT-4; MDA-N; NCI-H522; 786-0; COLO 205; CCRF-CEM.
Test in all cases: inhibition of tumour cell growth, NCI panel, 48 h

With `Cc1cc(O)c(C(C)C)cc1NC(=O)Nc1cccc2ccccc12`, the GI50 was 18 µM (inactive) in the assay with M14; 15.7 µM (inactive) in the assay on KM12; 19.8 µM (inactive) in the assay with LOX IMVI; 14.3 µM (inactive) with IGROV-1; 16.2 µM (inactive) in the assay on CAKI-1; 18.8 µM (inactive) in the assay with HCC 2998. Besides, the GI50 in the assay with SK-MEL-5 is 12.5 µM (inactive); in the assay with UO-31, 17.1 µM (inactive); with NCI-H226, 19.5 µM (inactive); in the assay on SNB-19, 11.8 µM (inactive); in the assay with OVCAR-4, 6.43 µM (inactive); in the assay on NCI-H23, 19.3 µM (inactive). For the same compound, the GI50 with SF-295 was 13.8 µM (inactive); with MOLT-4 it was 33.8 µM (inactive); in the assay on MDA-N, 12.7 µM (inactive); in the assay on NCI-H522, 15.1 µM (inactive); with 786-0, 15.3 µM (inactive).

In the case of `Cc1c(N2CCCC2)cc2c(c1NC(=O)c1ccccc1Cl)C(C)(C)CC2(C)C`, the GI50 with M14 was 13.5 µM (inactive); in the assay on KM12, 15.3 µM (inactive); in the assay with LOX IMVI, 13.4 µM (inactive); in the assay on IGROV-1, 13.6 µM (inactive); in the assay with CAKI-1, 13.3 µM (inactive); in the assay on HCC 2998 it was 13.1 µM (inactive). Besides, the GI50 in the assay on SK-MEL-5 was 16.8 µM (inactive); with UO-31, 13.2 µM (inactive); in the assay with NCI-H226 it was 23.2 µM (inactive); in the assay on SNB-19 it was 15.2 µM (inactive); with COLO 205, 18.2 µM (inactive); in the assay on OVCAR-4, 15.7 µM (inactive). For the same compound, the GI50 is 14.7 µM (inactive) in the assay on NCI-H23; 13.3 µM (inactive) with SF-295; 13.9 µM (inactive) in the assay with MDA-N; 13.1 µM (inactive) with NCI-H522; 14.1 µM (inactive) with 786-0.

As for `CC(C)C(=O)C(C)(C)CCc1ccccn1`, the GI50 in the assay on M14, in the assay on KM12, in the assay with LOX IMVI, in the assay with IGROV-1, with CAKI-1 and with CCRF-CEM was > 100 µM (inactive) in each case. The GI50 in the assay with HCC 2998, in the assay with SK-MEL-5, in the assay with UO-31, with NCI-H226, in the assay with SNB-19 and in the assay with COLO 205 was > 100 µM (inactive) each time. Further, the GI50 in the assay on OVCAR-4, in the assay on NCI-H23, in the assay with SF-295, with MDA-N, in the assay on NCI-H522 and with 786-0 was > 100 µM (inactive) in each case.

On to `COc1cc2c(cc1OC)C(=O)N(c1ccc(OCCN3CCCC3)cc1)C2=O`, for which the GI50 with M14, in the assay on KM12, with LOX IMVI, in the assay with IGROV-1, in the assay on CAKI-1 and in the assay on CCRF-CEM was > 100 µM (inactive) throughout. The GI50 in the assay with HCC 2998, with SK-MEL-5, in the assay on NCI-H226, in the assay with SNB-19, in the assay with COLO 205 and in the assay with OVCAR-4 was > 100 µM (inactive) throughout. Moreover, the GI50 with NCI-H23, in the assay with SF-295, in the assay with MOLT-4, with MDA-N, in the assay on NCI-H522 and with 786-0 was > 100 µM (inactive) in each case.

`Nc1nc(N)c2c(-c3ccccc3)ccnc2n1`: the GI50 with LOX IMVI, with IGROV-1, with CAKI-1, in the assay on CCRF-CEM, in the assay with HCC 2998 and in the assay on SK-MEL-5 was > 100 µM (inactive) in each case. Further, the GI50 was > 100 µM (inactive) in the assay with UO-31; 40.4 µM (inactive) in the assay with NCI-H226; > 100 µM (inactive) in the assay with SNB-19; > 100 µM (inactive) in the assay with COLO 205; > 100 µM (inactive) with OVCAR-4; > 100 µM (inactive) in the assay on NCI-H23. Besides, the GI50 in the assay with SF-295 is > 100 µM (inactive); with MOLT-4, > 10 µM (inactive); with MDA-N it was > 100 µM (inactive); in the assay with NCI-H522, > 100 µM (inactive); in the assay on 786-0, 67.1 µM (inactive).

Consider `COC(=O)c1ccc(/C=C2\Oc3ccccc3C2=O)cc1`, for which the GI50 in the assay on M14 is > 100 µM (inactive); with KM12, > 100 µM (inactive); with IGROV-1, > 100 µM (inactive); in the assay with CAKI-1, 41.2 µM (inactive); in the assay on CCRF-CEM it was 58.1 µM (inactive); in the assay on HCC 2998, > 100 µM (inactive). Moreover, the GI50 with SK-MEL-5, with UO-31, with NCI-H226, in the assay on SNB-19, with COLO 205 and in the assay with OVCAR-4 was > 100 µM (inactive) in each case. For the same compound, the GI50 is > 100 µM (inactive) in the assay on NCI-H23; > 100 µM (inactive) in the assay with SF-295; > 100 µM (inactive) with MOLT-4; > 100 µM (inactive) in the assay with MDA-N; 32.1 µM (inactive) in the assay with NCI-H522; > 100 µM (inactive) with 786-0.

As to `C=CCN1CC2CN=NC2(C#N)C1` (stereo not given), the GI50 in the assay on KM12, in the assay on LOX IMVI, in the assay on IGROV-1, with CAKI-1, in the assay on CCRF-CEM and in the assay on HCC 2998 was > 100 µM (inactive) throughout. Besides, the GI50 in the assay on SK-MEL-5, in the assay with UO-31, in the assay with NCI-H226, in the assay with SNB-19, in the assay with COLO 205 and with OVCAR-4 was > 100 µM (inactive) each time. Also, the GI50 in the assay on NCI-H23, in the assay on SF-295, with MOLT-4, in the assay on MDA-N, with NCI-H522 and in the assay on 786-0 was > 100 µM (inactive) throughout.

Regarding `O=C(NO)NCCCl`, the GI50 in the assay on M14, in the assay on KM12, with LOX IMVI, in the assay on IGROV-1, with CAKI-1 and in the assay on CCRF-CEM was > 100 µM (inactive) each time. The GI50 in the assay on HCC 2998, with SK-MEL-5, in the assay with UO-31, in the assay on NCI-H226, in the assay with SNB-19 and in the assay with COLO 205 was > 100 µM (inactive) in each case. Besides, the GI50 in the assay with OVCAR-4, with NCI-H23, in the assay on SF-295, in the assay with MOLT-4, with MDA-N and in the assay with NCI-H522 was > 100 µM (inactive) in each case. Besides, in the assay on 786-0, the GI50 was > 100 µM (inactive).

`N=c1oc2ccc3ccccc3c2cc1-c1nc(O)c2ccccc2n1`: the GI50 was 25.9 µM (inactive) in the assay with M14; 11 µM (inactive) in the assay on KM12; 38.5 µM (inactive) in the assay on LOX IMVI; 16 µM (inactive) with IGROV-1; 43.5 µM (inactive) with CAKI-1; 29.6 µM (inactive) in the assay with HCC 2998. Also, the GI50 in the assay with SK-MEL-5 is 44.5 µM (inactive); in the assay with UO-31, 3.23 µM (inactive); in the assay with NCI-H226, 37.1 µM (inactive); in the assay on SNB-19, 27.6 µM (inactive); in the assay on COLO 205 it was > 100 µM (inactive); in the assay with OVCAR-4 it was 20.6 µM (inactive). Also, the GI50 with SF-295 was 30.2 µM (inactive); in the assay with MOLT-4 it was 15.8 µM (inactive); in the assay with MDA-N it was 46.2 µM (inactive); in the assay on NCI-H522, 3.27 µM (inactive); in the assay on 786-0, 24.3 µM (inactive).

For the compound `c1ccc2nc(CCC3CCCCN3)ccc2c1` (stereo not given), the GI50 in the assay with M14 was > 100 µM (inactive); with KM12, > 100 µM (inactive); in the assay on LOX IMVI, > 100 µM (inactive); in the assay on IGROV-1, 69.8 µM (inactive); in the assay with CAKI-1, > 100 µM (inactive); in the assay with CCRF-CEM, 83.2 µM (inactive). Also, the GI50 in the assay on HCC 2998 is > 100 µM (inactive); in the assay on SK-MEL-5, 38.2 µM (inactive); in the assay on UO-31, 78.3 µM (inactive); with NCI-H226, > 100 µM (inactive); in the assay on SNB-19 it was > 100 µM (inactive); with COLO 205 it was 16.7 µM (inactive). Further, the GI50 in the assay on OVCAR-4 is > 100 µM (inactive); in the assay on NCI-H23 it was 72.9 µM (inactive); in the assay with SF-295, 53 µM (inactive); with MDA-N, 87.7 µM (inactive); in the assay with NCI-H522, 40.6 µM (inactive); with 786-0, > 100 µM (inactive).

Turning to `CCN(CC)CCNc1ccc2ncn3c4c(OC)cccc4c(=O)c1c23`, the GI50 with M14 is 6.34 µM (inactive); with KM12, 4.26 µM (inactive); with IGROV-1, 5.41 µM (inactive); in the assay with CAKI-1 it was 4.89 µM (inactive); in the assay with CCRF-CEM, 1.73 µM (inactive); in the assay with HCC 2998, 4.94 µM (inactive). Moreover, the GI50 in the assay with SK-MEL-5 was 2.38 µM (inactive); with UO-31, 4.38 µM (inactive); in the assay on NCI-H226, 5.86 µM (inactive); in the assay on SNB-19, 6.15 µM (inactive); with COLO 205 it was 1.91 µM (inactive); in the assay with OVCAR-4 it was 2.93 µM (inactive). Also, the GI50 was 5.46 µM (inactive) with NCI-H23; 10.4 µM (inactive) with SF-295; 0.912 µM (active) in the assay with MOLT-4; 4.27 µM (inactive) with MDA-N; 4.4 µM (inactive) with NCI-H522; 4.83 µM (inactive) in the assay with 786-0.

These data come from ChEMBL document CHEMBL1201862, “PubChem BioAssay data set” (2004).
